Measured values from ChEMBL document CHEMBL3351981, “Eleganketal A, a highly oxygenated dibenzospiroketal from the marine-derived fungus Spicaria elegans KLA03” (J Nat Prod, 2014).
pIC50: −log10 of the molar value.

Key:
Influenza A virus = assay: Antiviral activity against influenza A virus (A/Puerto Rico/8/34(H1N1)) infected in MDCK cells assessed as inhibition of virus-induced cytopathic effect after 48 hrs by crystal violet staining assay; assay type: functional, organism-based; conditions: A/Puerto Rico/8/1934(H1N1)
K562 = assay: Cytotoxicity against human K562 cells; assay type: functional, cell-based
[1] = Cytotoxicity against human HL60 cells; assay type: functional, cell-based; conditions: HL-60

SMILES | pIC50 (Influenza A virus) | pIC50 (K562) | pIC50 [1]
NC(=O)c1ncn([C@@H]2O[C@H](CO)[C@@H](O)[C@H]2O)n1 [RIBAVIRIN] | 4.00 | – | –
COc1c(C)c2c(c(OC)c1OC)C(=O)C1(OC2)OCc2c(C)c(OC)c(OC)c(OC)c21 (racemic) | – | < 4.30 | < 4.30
COc1c(C)c2c(c(OC)c1OC)C(=O)[C@@]1(OC2)OCc2c(C)c(OC)c(OC)c(OC)c21 | 3.83 | < 4.30 | < 4.30
COc1c(C)c2c(c(OC)c1OC)C(=O)[C@]1(OC2)OCc2c(C)c(OC)c(OC)c(OC)c21 | – | < 4.30 | < 4.30
